Literature values in US9161911B2, “Gastric retentive pharmaceutical compositions for treatment and prevention of CNS disorders” (priority 2008, dated 2015).

Row | Compound | solubility in aqueous media | solubility in water
1 | NC(Cc1ccc(O)c(O)c1)C(=O)O (single isomer, unassigned; (-)) [Levodopa, (−)-L-alpha-amino-beta-(3,4-dihydroxybenzene) propanoic acid] | poorly soluble | slightly soluble (aqueous solubility (measured at 20° C.) in the range of 2% to 10% by weight)
2 | C[C@@](Cc1ccc(O)c(O)c1)(NN)C(=O)O.O [Carbidopa, (−)-L-alpha-hydrazino-alpha-methyl-beta-(3,4-dihydroxybenzene) propanoic acid monohydrate] | poorly soluble | slightly soluble (aqueous solubility (measured at 20° C.) in the range of 2% to 10% by weight)
